Data taken from publication PMC8148554, “Characterization and Regulation of the Acetolactate Synthase Genes Involved in Acetoin Biosynthesis in Acetobacter pasteurianus” (Foods, 2021).

Target: T1, AlsS2 (Acetobacter pasteurianus, UniProt A0A401X088)
T1 construct: gene NBRC3278_0356; full length, gene 1695 bp (564 residues with stop codon in the gene); pET-22b(+) NdeI/XhoI, E. coli BL21(DE3), His tag (C-terminal by cloning, no stop in primer); about 59 kDa
T1 sequence (A0A401X088 1-564): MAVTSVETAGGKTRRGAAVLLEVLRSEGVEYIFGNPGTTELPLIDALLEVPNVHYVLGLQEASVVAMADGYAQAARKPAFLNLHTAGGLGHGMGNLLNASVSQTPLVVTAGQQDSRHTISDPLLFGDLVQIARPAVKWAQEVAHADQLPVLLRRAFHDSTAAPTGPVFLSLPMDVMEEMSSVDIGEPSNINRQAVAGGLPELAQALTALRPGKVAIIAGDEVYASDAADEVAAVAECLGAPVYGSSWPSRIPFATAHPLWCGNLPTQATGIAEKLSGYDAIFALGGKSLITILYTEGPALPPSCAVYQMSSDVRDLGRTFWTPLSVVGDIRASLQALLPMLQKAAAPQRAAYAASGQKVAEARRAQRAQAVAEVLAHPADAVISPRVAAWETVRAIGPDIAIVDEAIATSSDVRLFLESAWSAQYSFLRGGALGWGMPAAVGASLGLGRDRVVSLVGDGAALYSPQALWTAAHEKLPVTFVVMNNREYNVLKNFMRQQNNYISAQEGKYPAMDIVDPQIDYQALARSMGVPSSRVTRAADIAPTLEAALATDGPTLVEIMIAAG
Assay: GC detection of benzaldehyde formed
Format: biochemical
Conditions: 10 mM benzoylformate, 0.5 mM MgCl2, 1 mM TPP, 100 mM sodium phosphate pH 7.0, 37 °C, 10 h

O=C(O)C(=O)c1ccccc1 [benzoylformate]
GC detection of benzaldehyde formed: Benzaldehyde was detected in the reaction mixture
